These results are taken from US20220168313A1, “HETEROCYCLIC COMPOUNDS AND USES THEREOF” (Nuvation Bio Inc., priority 2019, published 2022).

Molecules are shown by their SMILES. pIC50: −log10 of the molar value.

T1 sequence (P30291 whole entry): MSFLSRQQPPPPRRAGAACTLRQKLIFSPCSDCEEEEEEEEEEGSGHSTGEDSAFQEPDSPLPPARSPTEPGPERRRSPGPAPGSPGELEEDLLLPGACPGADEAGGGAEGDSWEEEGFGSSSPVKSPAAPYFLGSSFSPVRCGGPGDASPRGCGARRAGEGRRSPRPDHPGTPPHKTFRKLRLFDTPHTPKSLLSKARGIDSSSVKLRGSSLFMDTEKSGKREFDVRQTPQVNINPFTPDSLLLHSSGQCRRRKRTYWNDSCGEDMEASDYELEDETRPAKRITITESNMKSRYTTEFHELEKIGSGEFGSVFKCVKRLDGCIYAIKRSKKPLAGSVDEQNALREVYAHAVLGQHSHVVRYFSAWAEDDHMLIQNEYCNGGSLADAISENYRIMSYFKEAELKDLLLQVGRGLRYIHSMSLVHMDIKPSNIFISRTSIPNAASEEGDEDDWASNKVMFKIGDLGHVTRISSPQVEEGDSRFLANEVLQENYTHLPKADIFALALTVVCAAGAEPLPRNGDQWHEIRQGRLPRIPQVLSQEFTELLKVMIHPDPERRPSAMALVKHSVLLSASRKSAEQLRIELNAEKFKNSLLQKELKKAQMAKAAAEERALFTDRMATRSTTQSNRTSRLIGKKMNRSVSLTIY

One assay has as its target T1, WEE1 kinase enzyme (Homo sapiens, UniProt P30291).
T1 construct: purchased Invitrogen, Life Technologies PR7373A
Description: WEE1 IC50 determination, LanthaScreen Terbium Labeled TR-FRET kinase assay. Type of assay: biochemical. To be noted: WEE1 Enzyme 1 nM, ATP 10 μM, fluorescent-PolyGT substrate 200 nM, 1 h. The procedure:
IC50 values of the compounds against WEE1 kinase enzyme were determined by LanthaScreen™ Terbium Labeled TR-FRET assay. Kinase assays were performed in 1× kinase buffer (#PV6135, Invitrogen, Life Technologies, Grand Island, N.Y.) where total reaction volume was 10 μL in low-volume 384-well plates (#4511, Corning). Serially diluted compounds (3-fold) were incubated with WEE1 Enzyme (1 nM) (#PR7373A, Invitrogen, Life Technologies, Grand Island, N.Y.) for 10 min; a mixture of ATP (10 μM) (#A1852, Sigma, St. Louis, Mo.) and fluorescent-PolyGT substrate (200 nM) (#PV3610, Invitrogen, Life Technologies, Grand Island, N.Y.) was added and incubated in dark at room temperature for 1 h. After 1 h, 10 μL stop solution containing terbium labeled antibody (4 nM) (#PV3529, Invitrogen, Life Technologies, Grand Island, N.Y.) and EDTA (#E5134, Sigma, St. Louis, Mo.) (20 mM) in TR-FRET dilution buffer (#PV3574, Invitrogen, Life Technologies, Grand Island, N.Y.) were added. Readings were taken in a Synergy Neo plate reader (BioTek, Winooski, Vt.) at single excitation of 340 nm and dual emission at 495 nm and 520 nm respectively.
The % activity of test samples was calculated as (Sample−Min)*100/(Max−Min). [Max: DMSO control, complete reaction with enzyme & DMSO and Min: No enzyme & DMSO]. Percent inhibition (100-% activity) was fitted to the “four-parameter logistic model” in XLfit for determination of IC50 values.
For orientation: TR-FRET usually uses a lanthanide donor and a delayed reading to cut background.
With `CN(C)CC(=O)N1CCc2cc(Nc3ncc4c(n3)OCN(c3c(Cl)cccc3Cl)C4=O)ccc2C1` [1.37, 3-(2,6-dichlorophenyl)-7-(2-(2-(dimethylamino)acetyl)-1,2,3,4-tetrahydroisoquinolin-6-ylamino)-2H-pyrimido[5,4-e][1,3]oxazin-4 (3H)-one], the pIC50 is 6.84.
The same measure, in the same setting: the value for `CN(C)CC(=O)N1CCc2cc(Nc3ncc4c(n3)OCN(c3c(Cl)cccc3Cl)C4=O)ccc2C1(C)C` [1.48, 3-(2,6-dichlorophenyl)-7-((2-(dimethylglycyl)-1,1-dimethyl-1,2,3,4-tetrahydroisoquinolin-6-yl)amino)-2,3-dihydro-4H-pyrimido[5,4-e][1,3]oxazin-4-one] was 6.90; that for `CC(C)N1CCc2cc(Nc3ncc4c(n3)OCN(c3c(Cl)cccc3Cl)C4=O)ccc2C1` [Compound No. 1.40, 3-(2,6-dichlorophenyl)-7-((2-isopropyl-1,2,3,4-tetrahydroisoquinolin-6-yl)amino)-2,3-dihydro-4H-pyrimido[5,4-e][1,3]oxazin-4-one] was 6.69.
The same measure, in the same setting: the value for `CC(C)N1CCc2ccc(Nc3ncc4c(n3)OCN(c3c(Cl)cccc3Cl)C4=O)cc2C1` [Compound No. 1.43, 3-(2,6-dichlorophenyl)-7-((2-isopropyl-1,2,3,4-tetrahydroisoquinolin-7-yl)amino)-2,3-dihydro-4H-pyrimido[5,4-e][1,3]oxazin-4-one] was 7.68; that for `CN(C)CC(=O)N1CCc2ccc(Nc3ncc4c(n3)OCN(c3c(Cl)cccc3Cl)C4=O)cc2C1` [Compound No. 1.44, 3-(2,6-dichlorophenyl)-7-((2-(dimethylglycyl)-1,2,3,4-tetrahydroisoquinolin-7-yl)amino)-2,3-dihydro-4H-pyrimido[5,4-e][1,3]oxazin-4-one] was 6.65.

In a further assay the test system is A427 cells. The assay can be described thus: Cytotoxicity assay in A427 cell line (resazurin, 72 hr). Type of assay: cell-based. The following applies: Homo sapiens, A-427; A427 lung epithelial cell line, 72 hr incubation, inhibition of proliferation. The procedure: A427 (HTB-53; ATCC), a lung epithelial cell line, was seeded in medium (MEM, 41090101; Gibco) at a cell count of 1500 cells per 100 μL per well in a 96 well edge plate (167425; ThermoFisher). Cells were allowed to grow at 37° C. for 24 hr in 5% CO2 environment (culture conditions) in a Nuaire incubator (humidified). Serially diluted test compounds (100 μL) within the desired testing concentration ranges were added to the culture plate and the cells further incubated in culture conditions for 72 hr. The experiment was terminated at the designated incubation time by replacing the medium with 100 μL of 1 mM of resazurin (R7017; Sigma) prepared in culture medium, and the plates were further incubated in culture conditions for 4-6 hr. Fluorescence was recorded using a multimodal plate reader (Biotek Synergy Neo) at an excitation wavelength of 535 nm and emission wavelength of 590 nm to obtain relative fluorescence units. Data were analysed as follows: the background fluorescence (blank containing only medium) value was subtracted from each reading and normalized with the vehicle control (DMSO treated cells) to obtain percent survival/proliferation. […] Potency of compounds in other cell lines (such as A549, As-Pc-1, Panc-10.05, MDA-MB-231, A172, U-87MG) may be determined in an analogous manner.
In general terms: The colour change of resazurin is a common sign of viable cells or microbes.
As to `CC(C)N1CCc2ccc(Nc3ncc4c(n3)OCN(c3c(Cl)cccc3Cl)C4=O)cc2C1` [Compound No. 1.43, 3-(2,6-dichlorophenyl)-7-((2-isopropyl-1,2,3,4-tetrahydroisoquinolin-7-yl)amino)-2,3-dihydro-4H-pyrimido[5,4-e][1,3]oxazin-4-one], the pIC50 is 5.26.

A word on the pIC50: it is −log10 of the IC50, conventionally taken in molar units.
